Experimental data as given in patent publication US6689754B1, “Heterocyclic glycyl β-alanine derivatives” (G. D. Searle & Co., priority 1998, dated 2004).
Structures can show the parent of a compound that is named as a salt.

Legend:
[1] = biological target: T1, Human vitronectin receptor (αvβ3) (Homo sapiens, UniProt P05106+P06756); experiment: Vitronectin adhesion assay: solid phase receptor assay, competition with biotinylated vitronectin; type: binding; details: purified human vitronectin receptor; 1 nM biotinylated vitronectin
T1 construct: Human vitronectin receptor (αvβ3) was purified from human placenta; from tissue; host or cells: human placenta
Experimental: Vitronectin Adhesion Assay
Human vitronectin receptor (αvβ3) was purified from human placenta as previously described [Pytela et al., Methods in Enzymology, 144:475-489 (1987)]. Human vitronectin was purified from fresh frozen plasma as previously described [Yatohgo et al., Cell Structure and Function, 13:281-292 (1988)]. Biotinylated human vitronectin was prepared by coupling NHS-biotin from Pierce Chemical Company (Rockford, Ill.) to purified vitronectin as previously described [Charo et al., J. Biol. Chem., 266(3):1415-1421 (1991)]. Assay buffer, OPD substrate tablets, and RIA grade BSA were obtained from Sigma (St. Louis, Mo.). Anti-biotin antibody was obtained from Calbiochem (La Jolla, Calif.). Linbro microtiter plates were obtained from Flow Labs (McLean, Va.). ADP reagent was obtained from Sigma (St. Louis, Mo.).
This assay was essentially the same as previously reported [Niiya et al., Blood, 70:475-483 (1987)]. The purified human vitronectin receptor (αvβ3) was diluted from stock solutions to 1.0 μg/mL in Tris-buffered saline containing 1.0 mM Ca^++, Mg^++, and Mn^++, pH 7.4 (TBS^+++). The diluted receptor was immediately transferred to Linbro microtiter plates at 100 μL/well (100 ng receptor/well). The plates were sealed and incubated overnight at 4° C. to allow the receptor to bind to the wells. All remaining steps were at room temperature. The assay plates were emptied and 200 μL of 1% RIA grade BSA in TBS^+++ (TBS^+++/BSA) were added to block exposed plastic surfaces. Following a 2 hour incubation, the assay plates were washed with TBS^+++ using a 96 well plate washer. Logarithmic serial dilution of the test compound and controls were made starting at a stock concentration of 2 mM and using 2 nM biotinylated vitronectin in TBS^+++/BSA as the diluent. This premixing of labeled ligand with test (or control) ligand, and subsequent transfer of 50 μL aliquots to the assay plate was carried out with a CETUS Propette robot; the final concentration of the labeled ligand was 1 nM and the highest concentration of test compound was 1.0×10^−4 M. The competition occurred for two hours after which all wells were washed with a plate washer as before. Affinity purified horseradish peroxidase labeled goat anti-biotin antibody was diluted 1:3000 in TBS^+++/BSA and 125 μL were added to each well. After 30 minutes, the plates were washed and incubated with OPD/H2O2 substrate in 100 mM/L Citrate buffer, pH 5.0. The plate was read with a microtiter plate reader at a wavelength of 450 nm and when the maximum-binding control wells reached an absorbance of about 1.0, the final A450 were recorded for analysis. The data were analyzed using a macro written for use with the EXCELJ spreadsheet program. The mean, standard deviation, and % CV were determined for duplicate concentrations. The mean A450 values were normalized to the mean of four maximum-binding controls (no competitor added)(B-MAX). The normalized values were subjected to a four parameter curve fit algorithm [Rodbard et al., Int.

[2] = biological target: T2, Human fibrinogen receptor IIb/IIIa (Homo sapiens, UniProt P05106+P08514); experiment: Purified IIb/IIIa receptor assay: solid phase receptor assay, competition with biotinylated vitronectin; type: binding; details: 1 nM biotinylated vitronectin
T2 construct: Human fibrinogen receptor ([…]) was purified from outdated platelets; from tissue; host or cells: outdated human platelets
Text: Purified IIb/IIIa Receptor Assay
Human fibrinogen receptor ([…]) was purified from outdated platelets. (Pytela, R., Pierschbacher, M. D., Argraves, S., Suzuki, S., and Rouslahti, E. “Arginine-Glycine-Aspartic acid adhesion receptors”, Methods in Enzymology 144(1987):475-489.) Human vitronectin was purified from fresh frozen plasma as described in Yatohgo, T., Izumi, M., Kashiwagi, H., and Hayashi, M., “Novel purification of vitronectin from human plasma by heparin affinity chromatography,” Cell Structure and Function 13(1988):281-292. Biotinylated human vitronectin was prepared by coupling NHS-biotin from Pierce Chemical Company (Rockford, Ill.) to purified vitronectin as previously described. (Charo, I. F., Nannizzi, L., Phillips, D. R., Hsu, M. A., Scarborough, R. M., “Inhibition of fibrinogen binding to GP IIb/IIIa by a GP IIIa peptide”, J. Biol. Chem. 266(3)(1991): 1415-1421.) Assay buffer, OPD substrate tablets, and RIA grade BSA were obtained from Sigma (St. Louis, Mo.). Anti-biotin antibody was obtained from Calbiochem (La Jolla, Calif.). Linbro microtiter plates were obtained from Flow Labs (McLean, Vs.). ADP reagent was obtained from Sigma (St. Louis, Mo.).
This assay is essentially the same reported in Niiya, K., Hodson, E., Bader, R., Byers-Ward, V. Koziol, J. A., Plow, E. F. and Ruggeri, Z. M., “Increased surface expression of the membrane glycoprotein IIb/IIIa complex induced by platelet activation: Relationships to the binding of fibrinogen and platelet aggregation”, Blood 70(1987):475-483. The purified human fibrinogen receptor ([…]) was diluted from stock solutions to 1.0 μg/mL in Tris-buffered saline containing 1.0 mM Ca^++, Mg^++, and Mn^++, pH 7.4 (TBS^+++). The diluted receptor was immediately transferred to Linbro microtiter plates at 100 μL/well (100 ng receptor/well). The plates were sealed and incubated overnight at 4° C. to allow the receptor to bind to the wells. All remaining Steps were at room temperature. The assay plates were emptied and 200 μL of 1% RIA grade BSA in TBS^+++ (TBS^+++/BSA) were added to block exposed plastic surfaces. Following a 2 hour incubation, the assay plates were washed with TBS^+++ using a 96 well plate washer. Logarithmic serial dilution of the test compound and controls were made starting at a stock concentration of 2 mM and using 2 nM biotinylated vitronectin in TBS^+++/BSA as the diluent. This premixing of labeled ligand with test (or control) ligand, and subsequent transfer of 50 μL aliquots to the assay plate was carried out with a CETUS Propette robot; the final concentration of the labeled ligand was 1 nM and the highest concentration of test compound was 1.0×10^−4 M. The competition occurred for two hours after which all wells were washed with a plate washer as before. Affinity purified horseradish peroxidase labeled goat anti-biotin antibody was diluted 1:3000 in TBS^+++/BSA and 125 μL were added to each well. After 30 minutes, the plates were washed and incubated with […] substrate in 100 mM/L citrate buffer, pH 5.0. The plate was read with a microtiter plate reader at a wavelength of 450 nm and when the maximum-binding control wells reached an absorbance of about 1.0, the final A450 were recorded for analysis. The data were analyzed using a macro written for use with the EXCELJ spreadsheet program. The mean, standard deviation, and % CV were determined for duplicate concentrations. The mean A450 values were normalized to the mean of four maximum-binding controls (no competitor added)(B-MAX). The normalized values were subjected to a four parameter curve fit algorithm, [Robard et al., Int. Atomic Energy Agency.

IC50 [1]	IC50 [2]	SMILES
3940 nM	1800 nM	O=C(O)C[C@H](NC(=O)CNC(=O)c1cc(=O)cc(NC2=NCC(O)CN2)[nH]1)c1cc(Cl)cc(Br)c1O (some centres unmarked) [Example 31]
1920 nM	2460 nM	O=C(O)C[C@H](NC(=O)CNC(=O)c1cscc1CNC1=NCC(O)CN1)c1cc(Cl)cc(Cl)c1O (some centres unmarked) [Example 39]
0.32 nM	2020 nM	O=C(O)CC(NC(=O)CNC(=O)c1c[nH]c(=O)c(NC2=NCCN2)c1)c1cc(Cl)cc(Cl)c1O (stereo not drawn) [Example 20, N-[[5-[(4,5,-dihydro-1H-imidazol-2-yl)amino]-1,6-dihydro-6-oxo-3-pyridinyl]-carbonyl]glycyl-3-(3,5-dichloro-2-hydroxyphenyl)-β-alanine, (trifluoroacetate) salt]
0.34 nM	1200 nM	O=C(O)C[C@H](NC(=O)CNC(=O)c1c[nH]c(=O)c(NC2=NCC(O)CN2)c1)c1cc(Br)cc(Cl)c1O (some centres unmarked) [Example 34]

The remaining lines, values behind:

SMILES	IC50 [1]	IC50 [2]
Nc1ncc(C(=O)NCC(=O)NC(CC(=O)O)c2cc(Cl)cc(Cl)c2O)cc1NC1=NCC(O)CN1 (centres unmarked) [Example 44]	42.1 nM	1060 nM
Cn1cc(NC2=NCC(O)CN2)cc1C(=O)NCC(=O)N[C@@H](CC(=O)O)c1cc(Cl)cc(Cl)c1O (some centres unmarked) [Example 38]	278 nM	115 nM
Cc1sc(C(=O)NCC(=O)N[C@@H](CC(=O)O)c2cc(Cl)cc(Cl)c2O)cc1NC1=NCCN1 [Example 15, (3S)-N-[[4-(4,5,-dihydro-1H-imidazol-2-yl)amino]-5-methyl-2-thienyl]carbonyl]glycyl-3-(3,5-dichloro-2-hydroxyphenyl)-β-alanine, trifluoroacetate salt]	25.4 nM	1040 nM
